# Reference: patent publication US20100047321A1, “SILVER ANTIMICROBIAL COMPOSITION AND USE” (priority 2008, published 2010)
# Assay: Settling test of redispersed aqueous silver chloride/gelatin dispersion (silver assay of top samples)
# Format: physicochemical
# Conditions: redispersal and testing after storage at 40° C. for 5 days
# Method: Samples were analyzed for silver content using an Automated Thioacetamide Titration system (ATT) to assay silver ion (Ag^+) present in silver containing compounds by a potentiometric titration. Silver chloride grains, which have been solubilized in a solution of thiosulfate, sodium hydroxide and gelatin, are titrated with thioacetamide to precipitate silver sulfide. The end-point of the titration is monitored potentiometrically using a silver sulfide-coated silver billet indicator electrode.
# […] To test for settling, the stirring was stopped and a 10 ml portion was removed from the top of the aliquot (time=0 sample).
# Additional samples were taken in a similar manner from the unstirred aliquot at 10 minute, 30 minute, and 60 minute intervals. By comparing the theoretical silver chloride concentration (measured on a sample taken from the vigorously stirred dispersion at the conclusion of the precipitation), assuming a perfectly dispersed solution, with that determined by the ATT assay for each sample taken from the top of the aliquot, it is possible to determine the amount of AgCl product that had settled in a given time interval.
# The following TABLE I contains the settling data for Invention Examples 1-7 and Comparative Examples 1-10. The settling is evaluated by comparing the silver assay results for samples taken from the top of the aliquot at time=0 or later, to the theoretical silver concentration, such that percent settle is defined by the expression (Theoretical [Ag]−Silver Assay(time))/(Theoretical [Ag]))×100.
row,Compound,Effectiveness of additive in reducing settling
1,"CC(=O)Nc1cccc(-n2[nH]nnc2=S)c1 [APMT, acetamide, N-(3-(2,5-dihydro-5-thioxo-1H-tetrazol-1-yl)phenyl)-, reference compound]",ineffective
2,"Cc1nc2ncnn2c(O)c1Br [Br-TAI, (1,2,4)triazolo(1,5-a)pyrimidin-7-ol, 6-bromo-5-methyl-]",remarkably effective
3,"O=[N+]([O-])c1cc(Cl)cc2[nH]nnc12 [CN-BZT, 6-chloro-4-nitro-1H-benzotriazole]",remarkably effective
4,"CSc1nc2nc(C)cc(O)n2n1 [SMe-TAI, (1,2,4)triazolo(1,5-a)pyrimidin-7-ol, 5-methyl-2-(methylthio)-]",remarkably effective
5,"O=C1NS(=O)(=O)c2ccccc21 [Saccharin, saccharin, reference compound]",ineffective
6,"O=C1CCC(=O)N1 [Succinimide, succinimide, reference compound]",ineffective
7,"Cc1cc(O)n2ncnc2n1.[Na] [TAI, (1,2,4)triazolo(1,5-a)pyrimidin-7-ol, 5-methyl-, sodium salt]",remarkably effective
8,"O=c1cc[nH]c(=O)[nH]1 [Uracil, uracil, reference compound]",ineffective
9,"O=c1[nH][nH]c(=O)[nH]1 [Urazole, urazole]",remarkably effective
10,"O=c1[nH]c(=O)c2[nH]c(=O)[nH]c2[nH]1 [Uric acid, uric acid]",remarkably effective
11,methyl-1H-benzotriazole [Me-BZT],remarkably effective

# Assay: pKa of additive
# Conditions: not given
Compound,pKa,Additive pKa
"CC(=O)Nc1cccc(-n2[nH]nnc2=S)c1 [APMT, acetamide, N-(3-(2,5-dihydro-5-thioxo-1H-tetrazol-1-yl)phenyl)-, reference compound]",3.3,
"Cc1nc2ncnn2c(O)c1Br [Br-TAI, (1,2,4)triazolo(1,5-a)pyrimidin-7-ol, 6-bromo-5-methyl-]",4.8,
"O=[N+]([O-])c1cc(Cl)cc2[nH]nnc12 [CN-BZT, 6-chloro-4-nitro-1H-benzotriazole]",6,
"CSc1nc2nc(C)cc(O)n2n1 [SMe-TAI, (1,2,4)triazolo(1,5-a)pyrimidin-7-ol, 5-methyl-2-(methylthio)-]",6.2,
"O=C1NS(=O)(=O)c2ccccc21 [Saccharin, saccharin, reference compound]",1.8,1.8
"O=C1CCC(=O)N1 [Succinimide, succinimide, reference compound]",9.4,
"Cc1cc(O)n2ncnc2n1.[Na] [TAI, (1,2,4)triazolo(1,5-a)pyrimidin-7-ol, 5-methyl-, sodium salt]",6.2,
"O=c1cc[nH]c(=O)[nH]1 [Uracil, uracil, reference compound]",9.2,
"O=c1[nH][nH]c(=O)[nH]1 [Urazole, urazole]",5.8,
"O=c1[nH]c(=O)c2[nH]c(=O)[nH]c2[nH]1 [Uric acid, uric acid]",5.8,
